Results: US20240294523A1, “HETEROCYCLIC LACTAM COMPOUND, AND PREPARATION METHOD THEREFOR AND PHARMACEUTICAL USE THEREOF” (Genfleet Therapeutics (Shanghai) Inc., priority 2021, published 2024)
pIC50: −log10 of the molar value.

What follows are compounds tested against RIPK1 (Homo sapiens (Human), UniProt Q13546) (assay: Inhibitory activity against RIPK1 enzyme (33P-ATP, MBP substrate)). Conditions: 36 nM RIPK1, 0.33 mg/ml MBP, 155 μM ATP, 2 hours, room temperature.
Format: biochemical
Description: (§1) The reagents used, suppliers and product numbers of the reagents were as follows: RPMI-1640, Gibco, 11875-093; FBS, Gibco, 10099-141; Trypsin-EDTA, Gibco, 25200-072; PS, Gibco, 15140-122; CellTiter Glo , Progema, G7573; DMSO, VWR AMRESCO, 0231-500ML; TNF-α protein (human, recombinant), Peprotech, 300-01A; Q-VD-Oph, MCE, HY-12305; V-shaped bottom plate, Corning, 3894; 384-well low-flange white flat-bottom microplate, Corning, 3570; RIPK1, Eurofins, 16-022; MOPS, BDH, 441644J; EDTA, Sigma, E5134; Myelin basic protein, Sigma, M1891-25.00 MG; Magnesium acetate, Merck, DU008026; ATP (non-radioactive label), Sigma, A-7699; ATP (radioactive label), Hartmann Analytic, DU008054; Phosphoric acid, Metlab, DU003000; Z-VAD: Shanghai Yuang Chemical Industry, YA02401.
The compound to be tested was dissolved in DMSO to prepare a 10 mM stock solution, diluted 3.16 times with DMSO into a series of concentration gradients, and then MOPS pH 7.0 buffer solution was used to dilute 50 times to prepare a working solution, and mixed well with 36 nM RIPK1 (final concentration), 0.33 mg/ml substrate MBP. Afterwards, 10 mM magnesium ions and 155 μM phosphorus 33 isotope-labeled ATP were added to react, The final concentration of DMSO was 2%. After the reaction was proceeded at room temperature for 2 hours, phosphoric acid was added to terminate. The final reaction system was processed and detected using a liquid scintillation counter. After the test results are subtracted from the blank control and compared with the reading value of the control group to convert to the activity percentage, which was plotted as a curve with the final concentration of the corresponding compound, and four-parameter fitting was used to obtain the IC50 of the compound that inhibits RIPK1 enzyme activity.

Sequence of RIPK1 (Q13546 whole entry): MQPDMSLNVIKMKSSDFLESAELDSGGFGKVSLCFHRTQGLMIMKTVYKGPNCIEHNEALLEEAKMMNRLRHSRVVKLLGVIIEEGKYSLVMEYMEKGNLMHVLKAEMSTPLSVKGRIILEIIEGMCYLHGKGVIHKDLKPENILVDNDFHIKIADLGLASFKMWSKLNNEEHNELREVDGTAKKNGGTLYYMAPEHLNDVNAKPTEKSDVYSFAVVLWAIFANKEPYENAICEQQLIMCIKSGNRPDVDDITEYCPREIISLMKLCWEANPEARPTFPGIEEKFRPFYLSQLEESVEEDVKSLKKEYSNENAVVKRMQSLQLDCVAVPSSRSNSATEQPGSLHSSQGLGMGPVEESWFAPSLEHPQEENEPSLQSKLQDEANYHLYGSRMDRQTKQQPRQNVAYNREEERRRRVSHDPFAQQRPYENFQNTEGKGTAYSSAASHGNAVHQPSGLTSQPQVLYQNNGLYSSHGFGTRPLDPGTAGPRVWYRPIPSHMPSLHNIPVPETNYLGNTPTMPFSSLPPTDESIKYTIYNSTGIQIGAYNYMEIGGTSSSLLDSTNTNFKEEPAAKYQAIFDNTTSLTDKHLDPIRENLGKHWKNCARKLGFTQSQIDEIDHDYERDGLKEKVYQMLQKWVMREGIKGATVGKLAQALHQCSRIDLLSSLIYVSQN

Q: `O=C1c2nn(Cc3ccccc3)c(Cl)c2CCN1CC(F)F` [Compound Z1, 2-benzyl-3-chloro-6-(2,2-difluoroethyl)-2,4,5,6-tetrahydro-7H-pyrazolo[3,4-c]pyridine-7-one] was tested. Which pIC50 did it give?
A: 7.19

Q: `O=C1c2nn(Cc3ccccc3F)c(Cl)c2CCN1CC(F)F` [Compound Z2, 3-chloro-6-(2,2-difluoroethyl)-2-(2-fluorobenzyl)-2,4,5,6-tetrahydro-7H-pyrazolo[3,4-c]pyridin-7-one] was tested. Which pIC50 did it give?
A: 7.52

Q: With `O=C1c2nn(Cc3c(F)cccc3F)c(Cl)c2CCN1CC(F)F` [Compound Z3, 3-chloro-2-(2,6-difluorobenzyl)-6-(2,2-difluoroethyl)-2,4,5,6-tetrahydro-7H-pyrazolo[3,4-c]pyridin-7-one] as the compound, how does the pIC50 read?
A: 7.32

Q: `O=C1c2nn(Cc3ccccc3)c(Cl)c2CCCN1CC(F)F` [Compound Z42] was tested. Which pIC50 did it give?
A: 6.74

Each compound was assayed on U937 cells (assay: Inhibition of TNF-α-induced programmed necrosis of U937 cells (CellTiter-Glo)). Conditions: U-937, human TNF-α + Q-VD-Oph, 48 hours.
Format: cell-based
Description: The U937 cell line used in the following test examples was from ATCC, number: CRL-1593.2, batch number: 63479999, culture medium: RPMI-1640+10% FBS.
as §1
The compounds to be tested were dissolved in DMSO and diluted with DMSO into a series of concentration gradients. 5000 U937 cells/well were seeded in a 384-well white plate. Compounds of corresponding concentrations were added to each well and mixed evenly with the cells. At the same time, human TNF-a and Q-VD-Oph were added to induce programmed necrosis of the cells. The cells were placed at 37° C., 5% CO2 incubator for 48 hours. CellTiter-Glo reagent was used for detection, and the chemiluminescence reading was detected using a microplate reader after sufficient lysis reaction. The test results were calculated using the formula SR (%)=(RLU compound−RLU blank)/(RLU high control−RLU blank)×100%. The survival rate and the final concentration of the corresponding compound were drawn into a curve and fitted using four parameters. Inhibitory IC50 on TNF-α-induced cell necrosis of the compounds were calculated.

Q: With `C[C@@H](C(F)F)N1CCc2c(nn(Cc3c(F)cccc3F)c2Cl)C1=O` (single isomer, unassigned) [Compound Z9-1] as the compound, how does the pIC50 read?
A: 6.59

Q: `C[C@H](C(F)F)N1CCc2c(nn(Cc3c(F)cccc3F)c2Br)C1=O` (single isomer, unassigned) [Compound Z24-1] was tested. Which pIC50 did it give?
A: 6.92

Q: With `O=C1c2nn(Cc3ccccc3)c(Cl)c2CCN1CC(F)F` [Compound Z1, 2-benzyl-3-chloro-6-(2,2-difluoroethyl)-2,4,5,6-tetrahydro-7H-pyrazolo[3,4-c]pyridine-7-one] as the compound, how does the pIC50 read?
A: 6.34

Q: With `O=C1c2nn(Cc3ccccc3F)c(Cl)c2CCN1CC(F)F` [Compound Z2, 3-chloro-6-(2,2-difluoroethyl)-2-(2-fluorobenzyl)-2,4,5,6-tetrahydro-7H-pyrazolo[3,4-c]pyridin-7-one] as the compound, how does the pIC50 read?
A: 6.55

Q: `O=C1c2nn(Cc3c(F)cccc3F)c(Cl)c2CCN1CC(F)F` [Compound Z3, 3-chloro-2-(2,6-difluorobenzyl)-6-(2,2-difluoroethyl)-2,4,5,6-tetrahydro-7H-pyrazolo[3,4-c]pyridin-7-one] was tested. Which pIC50 did it give?
A: 6.89

Q: How did the pIC50 turn out when `N#CCCN1CCc2c(nn(Cc3c(F)cccc3F)c2Cl)C1=O` [Compound Z4, 3-(3-chloro-2-(2,6-difluorobenzyl)-7-oxo-2,4,5,7-tetrahydro-6H-pyrazolo[3,4-c]pyridine-6-yl)propionitrile] was run?
A: 5.87

Q: With `O=C1c2nn(Cc3cc(F)ccc3F)c(Cl)c2CCN1CC(F)F` [Compound Z5, 3-chloro-2-(2,5-difluorobenzyl)-6-(2,2-difluoroethyl)-2,4,5,6-tetrahydro-7H-pyrazolo[3,4-c]pyridin-7-one] as the compound, how does the pIC50 read?
A: 6.69

Q: How did the pIC50 turn out when `O=C1c2nn(Cc3c(F)ccc(F)c3F)c(Cl)c2CCN1CC(F)F` [Compound Z6, 3-chloro-6-(2,2-difluoroethyl)-2-(2,3,6-trifluorobenzyl)-2,4,5,6-tetrahydro-7H-pyrazolo[3,4-c]pyridin-7-one] was run?
A: 6.32

Q: With `N#CCC1(N2CCc3c(nn(Cc4c(F)cccc4F)c3Cl)C2=O)CC1` [Compound Z7, 2-(1-(3-chloro-2-(2,6-difluorobenzyl)-7-oxo-2,4,5,7-tetrahydro-6H-pyrazolo[3,4-c]pyridin-6-yl)cyclopropyl)acetonitrile] as the compound, how does the pIC50 read?
A: 5.74

Q: With `O=C1c2nn(Cc3ccccc3Cl)c(Cl)c2CCN1CC(F)F` [Compound Z8, 3-chloro-2-(2-chlorobenzyl)-6-(2,2-difluoroethyl)-2,4,5,6-tetrahydro-7H-pyrazolo[3,4-c]pyridin-7-one] as the compound, how does the pIC50 read?
A: 6.60

Q: With `O=C1c2nn(Cc3c(F)cccc3F)c(Cl)c2CCN1C1(C(F)F)CC1` [Compound Z10, 3-chloro-2-(2,6-difluorobenzyl)-6-(1-(difluoromethyl)cyclopropyl)-2,4,5,6-tetrahydro-7H-pyrazolo[3,4-c]pyridin-7-one] as the compound, how does the pIC50 read?
A: 6.17

Q: With `O=C1c2nn(Cc3c(F)cccc3F)c(Cl)c2CCN1CC1(F)CC1` [Compound Z11, 3-chloro-2-(2,6-difluorobenzyl)-6-((1-fluorocyclopropyl)methyl)-2,4,5,6-tetrahydro-7H-pyrazolo[3,4-c]pyridin-7-one] as the compound, how does the pIC50 read?
A: 5.80

Q: With `CC(C(F)F)N1CCc2c(nn(Cc3ccccc3OC(F)(F)F)c2Cl)C1=O` (stereo not shown) [Compound Z12, 3-chloro-6-(1,1-difluoropropan-2-yl)-2-(2-(trifluoromethoxy)benzyl)-2,4,5,6-tetrahydro-7H-pyrazolo[3,4-c]pyridin-7-one] as the compound, how does the pIC50 read?
A: 5.86

Q: How did the pIC50 turn out when `O=C1c2nn(Cc3c(F)cccc3F)c(Cl)c2CCN1C(C(F)F)C1CC1` (stereo not shown) [Compound Z13, 3-chloro-6-(1-cyclopropyl-2,2-difluoroethyl)-2-(2,6-difluorobenzyl)-2,4,5,6-tetrahydro-7H-pyrazolo[3,4-c]pyridin-7-one] was run?
A: 6.92

Q: How did the pIC50 turn out when `CC(C(F)F)N1CCc2c(nn(Cc3cc(F)cc(F)c3)c2Cl)C1=O` (stereo not shown) [Compound Z14, 3-chloro-2-(3,5-difluorobenzyl)-6-(1,1-difluoropropan-2-yl)-2,4,5,6-tetrahydro-7H-pyrazolo[3,4-c]pyridin-7-one] was run?
A: 6.01

Q: `CCC(C(F)F)N1CCc2c(nn(Cc3c(F)cccc3F)c2Cl)C1=O` (stereo not shown) [Compound Z15, 3-chloro-2-(2,6-difluorobenzyl)-6-(1,1-difluorobutan-2-yl)-2,4,5,6-tetrahydro-7H-pyrazolo[3,4-c]pyridin-7-one] was tested. Which pIC50 did it give?
A: 6.90

Q: `CC(COc1ccc(C#N)cn1)N1CCc2c(nn(Cc3ccccc3)c2Cl)C1=O` (stereo not shown) [Compound Z16, 6-(2-(2-benzyl-3-chloro-7-oxo-2,4,5,7-tetrahydro-6H-pyrazolo[3,4-c]pyridine-6-yl)propoxy)nicotinonitrile] was tested. Which pIC50 did it give?
A: 5.53

Q: With `CC(C(F)F)N1CCc2c(C(F)(F)F)nn(Cc3c(F)cccc3F)c2C1=O` (stereo not shown) [Compound Z17, 1-(2,6-difluorobenzyl)-6-(1,1-difluoropropan-2-yl)-3-(trifluoromethyl)-1,4,5,6-tetrahydro-7H-pyrazolo[3,4-c]pyridin-7-one] as the compound, how does the pIC50 read?
A: 5.74

Q: `CC(C(F)F)N1CCc2c(nn(Cc3ccc(F)cc3F)c2Cl)C1=O` (stereo not shown) [Compound Z18, 3-chloro-2-(2,4-difluorobenzyl)-6-(1,1-difluoropropan-2-yl)-2,4,5,6-tetrahydro-7H-pyrazolo[3,4-c]pyridin-7-one] was tested. Which pIC50 did it give?
A: 6.71

Q: With `CC(C(F)F)N1CCc2c(nn(Cc3ccccc3F)c2Cl)C1=O` (stereo not shown) [Compound Z19, 3-chloro-6-(1,1-difluoropropan-2-yl)-2-(2-fluorobenzyl)-2,4,5,6-tetrahydro-7H-pyrazolo[3,4-c]pyridin-7-one] as the compound, how does the pIC50 read?
A: 6.77

Q: `CCC(=O)N1CCc2c(nn(Cc3c(F)cccc3F)c2Cl)C1=O` [Compound Z20, 3-chloro-2-(2,6-difluorobenzyl)-6-propionyl-2,4,5,6-tetrahydro-7H-pyrazolo[3,4-c]pyridin-7-one] was tested. Which pIC50 did it give?
A: 6.52

Q: `CC(C(F)F)N1CCc2c(nn(Cc3cc(F)c(F)cc3F)c2Cl)C1=O` (stereo not shown) [Compound Z21, 3-chloro-6-(1,1-difluoropropan-2-yl)-2-(2,4,5-trifluorobenzyl)-2,4,5,6-tetrahydro-7H-pyrazolo[3,4-c]pyridin-7-one] was tested. Which pIC50 did it give?
A: 6.27

Q: With `CC(C(F)F)N1CCc2c(nn(Cc3c(F)cc(F)cc3F)c2Cl)C1=O` (stereo not shown) [Compound Z22, 3-chloro-6-(1,1-difluoropropan-2-yl)-2-(2,4,6-trifluorobenzyl)-2,4,5,6-tetrahydro-7H-pyrazolo[3,4-c]pyridin-7-one] as the compound, how does the pIC50 read?
A: 6.65

Q: `O=C1c2nn(Cc3c(F)cccc3F)c(Cl)c2CCN1C1CCOCC1` [Compound Z23, 3-chloro-2-(2,6-difluorobenzyl)-6-(tetrahydro-2H-pyran-4-yl)-2,4,5,6-tetrahydro-7H-pyrazolo[3,4-c]pyridin-7-one] was tested. Which pIC50 did it give?
A: 6.51

Q: With `CC(C(F)F)N1CCc2c(nn(Cc3c(F)cccc3F)c2Br)C1=O` (stereo not shown) [Compound Z24, 3-bromo-2-(2,6-difluorobenzyl)-6-(1,1-difluoropropan-2-yl)-2,4,5,6-tetrahydro-7H-pyrazolo[3,4-c]pyridin-7-one] as the compound, how does the pIC50 read?
A: 7.31

Q: With `CC1(C)CC(N2CCc3c(nn(Cc4c(F)cccc4F)c3Cl)C2=O)CCO1` (stereo not shown) [Compound Z25, 3-chloro-2-(2,6-difluorobenzyl)-6-(2,2-dimethyltetrahydro-2H-pyran-4-yl)-2,4,5,6-tetrahydro-7H-pyrazolo[3,4-c]pyridin-7-one] as the compound, how does the pIC50 read?
A: 6.33

Q: With `CC(=O)N1CCc2c(nn(Cc3c(F)cccc3F)c2Cl)C1=O` [Compound Z26, 6-acetyl-3-chloro-2-(2,6-difluorobenzyl)-2,4,5,6-tetrahydro-7H-pyrazolo[3,4-c]pyridin-7-one] as the compound, how does the pIC50 read?
A: 6.44
